Among the data in patent publication US20110200993A1, “NEW TREATMENT OF AUTOIMMUNE CONDITIONS” (priority 2007, published 2011) are arthritis susceptibility values, retold here.

This test has as its system system A transporters (including Slc38A1). Put plainly: Effect of blocking system A transport on arthritis in mice. It counts as in vivo. From the text: FIG. 3 is a graph showing the effect of blocking the system A transporters (including Slc38A1) on (A) mean arthritis score and (B) anti collagen antibody production. P=<0.05, n=20.
This confirms that disease susceptibility can be changed both by increased and decreased transporter activity.

In the case of `CNC(C)(C)C(=O)O` [MeAIB], the arthritis susceptibility entry is “increases arthritis susceptibility”.
